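Growth conditions: 96-well plates. Treatment: test compound, 48 hours, 5 concentrations. Analysis: linear interpolation between bracketing concentrations; unreached endpoints set to highest concentration. GI50 = concentration required for 50% inhibition of growth. TGI marks complete inhibition of growth.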
Experiments:
Assay in all cases: NCI tumour cell line growth inhibition, 48 h
786-0 renal = tested on: 786-0 renal
A498 renal = tested on: A498 renal
A549 NSCLC = tested on: A549 NSCLC
ACHN renal = tested on: ACHN renal
BT-549 breast = tested on: BT-549 breast
CAKI-1 renal = tested on: CAKI-1 renal
CCRF-CEM leukemia = tested on: CCRF-CEM leukemia
COLO 205 colon = tested on: COLO 205 colon
DU-145 prostate = tested on: DU-145 prostate
EKVX NSCLC = tested on: EKVX NSCLC
HCC-2998 colon = tested on: HCC-2998 colon
HCT-116 colon = tested on: HCT-116 colon
HCT-15 colon = tested on: HCT-15 colon
HOP-62 NSCLC = tested on: HOP-62 NSCLC
HOP-92 NSCLC = tested on: HOP-92 NSCLC
HS 578T breast = tested on: HS 578T breast
HT29 colon = tested on: HT29 colon
IGROV1 ovarian = tested on: IGROV1 ovarian
KM12 colon = tested on: KM12 colon
LOX IMVI melanoma = tested on: LOX IMVI melanoma
M14 melanoma = tested on: M14 melanoma
MALME-3M melanoma = tested on: MALME-3M melanoma
MCF7 breast = tested on: MCF7 breast
MDA-MB-231 breast = tested on: MDA-MB-231 breast
MDA-MB-435 = tested on: MDA-MB-435
MOLT-4 leukemia = tested on: MOLT-4 leukemia
NCI-H226 lung = tested on: NCI-H226 lung
NCI-H23 lung = tested on: NCI-H23 lung
NCI-H460 lung = tested on: NCI-H460 lung
NCI-H522 lung = tested on: NCI-H522 lung
NCI/ADR-RES ovarian = tested on: NCI/ADR-RES ovarian
OVCAR-3 ovarian = tested on: OVCAR-3 ovarian
OVCAR-4 ovarian = tested on: OVCAR-4 ovarian
OVCAR-5 ovarian = tested on: OVCAR-5 ovarian
OVCAR-8 ovarian = tested on: OVCAR-8 ovarian
PC-3 prostate = tested on: PC-3 prostate
RPMI-8226 leukemia = tested on: RPMI-8226 leukemia
RXF 393 renal = tested on: RXF 393 renal
SF-268 CNS = tested on: SF-268 CNS
SF-295 CNS = tested on: SF-295 CNS
SF-539 CNS = tested on: SF-539 CNS
SK-MEL-2 melanoma = tested on: SK-MEL-2 melanoma
SK-MEL-28 melanoma = tested on: SK-MEL-28 melanoma
SK-MEL-5 melanoma = tested on: SK-MEL-5 melanoma
SK-OV-3 ovarian = tested on: SK-OV-3 ovarian
SN12C renal = tested on: SN12C renal
SNB-19 CNS = tested on: SNB-19 CNS
SNB-75 CNS = tested on: SNB-75 CNS
SW-620 colon = tested on: SW-620 colon
T-47D breast = tested on: T-47D breast
TK-10 renal = tested on: TK-10 renal
U251 CNS = tested on: U251 CNS
UACC-257 melanoma = tested on: UACC-257 melanoma
UACC-62 melanoma = tested on: UACC-62 melanoma
UO-31 renal = tested on: UO-31 renal

## COC(=O)[C@@]1(C)CCC[C@]2(C)[C@H]3Cc4occc4[C@H](C)[C@@H]3CC[C@@]12O
786-0 renal
  GI50: 45.8 µM
  TGI: > 100 µM
A498 renal
  GI50: 17.9 µM
  TGI: 46.6 µM
A549 NSCLC
  GI50: 34.4 µM
  TGI: > 100 µM
ACHN renal
  GI50: 17.8 µM
  TGI: 50.2 µM
BT-549 breast
  GI50: 26.9 µM
  TGI: 70.5 µM
CAKI-1 renal
  GI50: 41.8 µM
  TGI: > 100 µM
CCRF-CEM leukemia
  GI50: 37.2 µM
  TGI: > 100 µM
COLO 205 colon
  GI50: 33.1 µM
  TGI: > 100 µM
DU-145 prostate
  GI50: 58.7 µM
  TGI: > 100 µM
EKVX NSCLC
  GI50: 27.7 µM
  TGI: 71.3 µM
HCC-2998 colon
  GI50: 34.3 µM
  TGI: 89.7 µM
HCT-116 colon
  GI50: 17.6 µM
  TGI: 42.5 µM
HCT-15 colon
  GI50: 73.5 µM
  TGI: > 100 µM
HOP-62 NSCLC
  GI50: 33.7 µM
  TGI: > 100 µM
HOP-92 NSCLC
  GI50: 13.4 µM
  TGI: 57.9 µM
HS 578T breast
  GI50: 20.1 µM
  TGI: 41.4 µM
HT29 colon
  GI50: 20.9 µM
  TGI: > 100 µM
IGROV1 ovarian
  GI50: 30 µM
  TGI: > 100 µM
KM12 colon
  GI50: 16 µM
  TGI: 32.8 µM
LOX IMVI melanoma
  GI50: 18.4 µM
  TGI: 42.6 µM
M14 melanoma
  GI50: 28.6 µM
  TGI: > 100 µM
MALME-3M melanoma
  GI50: 21.3 µM
  TGI: 52.4 µM
MCF7 breast
  GI50: 18.2 µM
  TGI: > 100 µM
MDA-MB-231 breast
  GI50: 32.4 µM
  TGI: > 100 µM
MDA-MB-435
  GI50: 16.7 µM
  TGI: 38.7 µM
MOLT-4 leukemia
  GI50: 17.3 µM
  TGI: 80.3 µM
NCI-H226 lung
  GI50: 20.9 µM
  TGI: 64.7 µM
NCI-H23 lung
  GI50: 45.3 µM
  TGI: > 100 µM
NCI-H460 lung
  GI50: 16.3 µM
  TGI: 49.2 µM
NCI-H522 lung
  GI50: 31.4 µM
  TGI: 98.5 µM
NCI/ADR-RES ovarian
  GI50: 68.4 µM
  TGI: > 100 µM
OVCAR-3 ovarian
  GI50: 17.3 µM
  TGI: 59 µM
OVCAR-4 ovarian
  GI50: 92.3 µM
  TGI: > 100 µM
OVCAR-5 ovarian
  GI50: 73.7 µM
  TGI: > 100 µM
OVCAR-8 ovarian
  GI50: 35 µM
  TGI: > 100 µM
PC-3 prostate
  GI50: 26.1 µM
  TGI: > 100 µM
RPMI-8226 leukemia
  GI50: 17.9 µM
  TGI: > 100 µM
RXF 393 renal
  GI50: 25 µM
  TGI: 93.1 µM
SF-268 CNS
  GI50: 34 µM
  TGI: > 100 µM
SF-295 CNS
  GI50: 21.1 µM
  TGI: 66.8 µM
SF-539 CNS
  GI50: 19.9 µM
  TGI: 40.2 µM
SK-MEL-2 melanoma
  GI50: 26.8 µM
  TGI: 72.4 µM
SK-MEL-28 melanoma
  GI50: > 100 µM
  TGI: > 100 µM
SK-MEL-5 melanoma
  GI50: 21.1 µM
  TGI: 37.4 µM
SK-OV-3 ovarian
  GI50: > 100 µM
  TGI: > 100 µM
SN12C renal
  GI50: 21.1 µM
  TGI: 48 µM
SNB-19 CNS
  GI50: 95.5 µM
  TGI: > 100 µM
SNB-75 CNS
  GI50: 55.6 µM
  TGI: > 100 µM
SW-620 colon
  GI50: 44.1 µM
  TGI: > 100 µM
T-47D breast
  GI50: 26.4 µM
  TGI: > 100 µM
TK-10 renal
  GI50: 24.5 µM
  TGI: > 100 µM
U251 CNS
  GI50: 18.1 µM
  TGI: 44 µM
UACC-257 melanoma
  GI50: 35.6 µM
  TGI: > 100 µM
UACC-62 melanoma
  GI50: 17.5 µM
  TGI: > 100 µM
UO-31 renal
  GI50: 37.5 µM
  TGI: > 100 µM
